Test results as given in patent US4757068A, “Lactams and bicyclic lactams useful as cholecystokinin antagonists” (Merck & Co., Inc., priority 1985, dated 1988).

What was measured:
CCK receptor [1] = target: T1, CCK receptor (Rattus norvegicus, UniProt P30551); test: 125I-CCK-33 receptor binding (pancreas or brain; tissue not stated); details: added protease inhibitors in binding buffer
T1 construct: from tissue
T1 sequence (P30551 1-444): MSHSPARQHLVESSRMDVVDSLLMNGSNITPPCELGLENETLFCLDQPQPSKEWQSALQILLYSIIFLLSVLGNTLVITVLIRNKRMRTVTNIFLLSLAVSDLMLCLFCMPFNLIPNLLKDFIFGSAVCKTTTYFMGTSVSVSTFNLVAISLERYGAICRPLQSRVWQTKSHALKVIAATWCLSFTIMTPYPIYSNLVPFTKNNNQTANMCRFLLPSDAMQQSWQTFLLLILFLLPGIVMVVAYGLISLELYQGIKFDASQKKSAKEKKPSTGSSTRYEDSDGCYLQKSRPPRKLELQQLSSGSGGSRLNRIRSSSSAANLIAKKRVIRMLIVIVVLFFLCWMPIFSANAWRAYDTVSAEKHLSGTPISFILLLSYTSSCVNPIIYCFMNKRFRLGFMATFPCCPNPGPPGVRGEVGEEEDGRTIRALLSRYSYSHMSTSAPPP
Description: (§1) CCK-33 was radiolabeled with ^125 I-Bolton Hunter reagent (2000 Ci/mmole) as described by Sankara et al. (J. Biol. Chem. 254: 9349-9351, 1979). Receptor binding was performed according to Innis and Snyder (Proc. Natl. Acad. Sci. 77: 6917-6921, 1980) with the minor modification of adding the additional protease inhibitors, phenylmethane sulfonyl fluoride and o-phenanthroline.
(§2) Male Sprague-Dawley rats (200-350g) were sacrificed by decapitation. The whole pancreas was dissected free of fat tissue and was homogenized in 20 volumes of ice-cold 50 mM, Tris HCl (pH 7.7 at 25° C.) with a Brinkmann Polytron PT 10. The homogenates were centrifuged at 48,000 g for 10 min. Pellets were resuspended in Tris Buffer, centrifuged as above and resuspended in 200 volumes of binding assay buffer (50 mM Tris HCl, pH 7.7 at 25° C., 5 mM dithriothriethel, 0.1 mM bacitracin, 1.2 mM phenylmethane sulfonyl fluoride, and 0.5 mM phenathroline). […] All assays were run in duplicate or triplicate. The reaction mixtures were incubated at 37° C. for 30 minutes and centrifuged in a Beckman Microfuge (4 minutes) immediately after adding 1 ml of ice-cold incubation buffer. The supernatant was aspirated and discarded, pellets were counted with a Beckman gamma 5000.
(§3) CCK-33 was radiolabeled and the binding was performed according to the description for the pancreas method with modifications according to Saito et al. (J. Neurochem., 37, 483-490 (1981)).
(§4) Male Hartley guinea pigs (300-500g) were sacrificed by decapitation and the brains were removed and placed in ice-cold 50 mM, Tris HCl plus 7.58 g/l Tritma-7.4 (pH 7.4 at 25° C.) Cerebral cortex was dissected and used as a receptor source. Each gram of fresh guinea pig brain tissue was homogenized in 10 ml of Tris/Trizma buffer with a Brinkman polytron PT-10. The homogenates were centrifuged at 42,000 g for 15 min. Pellets were resuspended in Tris Buffer, centrifuged as above and resuspended in 200 volumes of binding assay buffer (10 mM HEPES, pH 7.7 at 25° C., 5 mM MgCl2, 1 mM EGTA, 0.4% BSA (bovine serum albumin), and 0.25 mg/ml bacitracin). […] All assays were run in duplicate or triplicate. The reaction mixtures were incubated at 25° C. for 2 hours and centrifuged in a Beckman Microfuge (4 minutes) immediately after adding 1 ml of ice-cold incubation buffer. The supernatant was aspirated and discarded, pellets were counted with a Beckman gamma 5000.

CCK receptor [2] = details: various members of the cyclic nucleotide class, literature; cited from earlier work
CCK receptor [3] = test: 125I-CCK-33 receptor binding (pancreas or brain; tissue not stated); details: 125I-CCK-33; tissue (rat pancreas or guinea pig brain) not stated; read-out: inhibition of specific 125I-CCK-33 binding, IC50
Description: as §1, §2, §3, §4

## c1cnc2c(c1)ccc1cccnc12 [o-phenanthroline]
CCK receptor [1]
  effect on the 125I-CCK receptor binding assay: no effect

## O=S(=O)(F)Cc1ccccc1 [phenylmethane sulfonyl fluoride]
CCK receptor [1]
  effect on the 125I-CCK receptor binding assay: no effect

## CCCC(=O)Nc1nc2c(ncn2[C@@H]2O[C@@H]3COP(=O)(O)O[C@H]3[C@H]2OC(=O)CCC)c(=O)[nH]1 [dibutyryl cyclic GMP]
CCK receptor [2]
  potency rank among cyclic nucleotide CCK antagonists: most potent

## CCOC(=O)C(CCc1ccccc1)NC1CCCC(c2ccccc2)N(CC(=O)OC)C1=O (single isomer, unassigned) [1-Carbomethoxymethyl-3-(1-carbethoxy-3-phenylpropyl)amino-7-phenylperhydroazepin-2-one]
CCK receptor [3]
  IC50: 32 µM

## COC(=O)CN1C(=O)C(C)(NC(CCc2ccccc2)C(=O)OC)CCc2ccccc21 (centres unmarked) [1-Carbomethoxymethyl-3-(1-carbomethoxy-3-phenylpropyl)amino-3-methyl homodihydrocarbostyril]
CCK receptor [3]
  IC50: 72 µM
